Data: patent US20210277264A1, “INK COMPOSITIONS” (HEWLETT-PACKARD DEVELOPMENT COMPANY, L.P., priority 2018, published 2021)
Read-outs that look alike come from different tables or passages of the source.

Assay: Partition coefficient (log P 1-octanol/water) of organic co-solvents
Description: The hydrophilicity of the organic co-solvent can be quantified as a partition coefficient. As used herein, “partition coefficient” refers to a concentration ratio of a compound in an equilibrium mixture of two immiscible phases, and can be a measure of the difference in solubility of the compound in the two immiscible phases. Formula I provides an equation of quantifying the hydrophilicity of the organic co-solvents of the present disclosure, as follows: […]

[1] = equilibrium mixture of 1-octanol and water

Row | SMILES | Partition Coefficient (log P1-octanol/water) | Partition Coefficient (log P1-octanol/water) [1]
1 | O=C1CCCN1 [2-pyrrolidone] |  | −0.10
2 | CC1(C)NC(=O)NC1=O [5,5-dimethyl hydantoin] | −0.40 | 
3 | CCCCCCCCO [Ink 1-octanol, 1-octanol] | 2.34 | 
4 | CCC(CO)(CO)CO [ethylhydroxy propanediol] |  | −0.50
5 | O [water] | −0.825 | 

The next lines start with results.

Row | Partition Coefficient (log P1-octanol/water) | SMILES | Partition Coefficient (log P1-octanol/water) [1]
6 | −0.40 | O=C1CCCN1CCO [N-(2-hydroxyethyl)-2-pyrrolidinone] | 
7 | −1.39 | CC1(C)C(=O)N(CCO)C(=O)N1CCO [di-(2-hydroxyethy)-5,5-dimethylhydantoin] | 
8 | −1.00 | OCCOCCOCCO [triethylene glycol] | 
